Data: patent US5214034A, “Catechol derivatives, and preventive and remedial preparations for regressive disorders in the central nervous system containing the same” (priority 1986, dated 1993)
Where two headings read alike, the source gives them in different places.

How the values were obtained:
[1] = system: production and secretion of NGF on L-M cells; assay: Promoting action for the production and secretion of NGF on L-M cells of mouse (ELISA); assay type: cell-based; conditions: Mus musculus; for fold induction at 150 µM: 0.15 mM
Text: Catecholamines have also been found in a relatively high concentration to accelerate these functions without being mediated by adrenergic receptors [Y. Furukawa et al., J. Biol. Chem., 261, 6039-6047 (1986)].
The compound having a high activity in Table 1, that is, the catechol derivative having a n-alkyl group in the 3 or 4 position on the ring has been observed an acute cell toxicity in higher concentrations. The toxicity was considered the result of two hydroxyl groups in the catechol structure. Then the hydroxyl groups were esterified or etherified and the resulting derivative was examined the effect on the activity for the production and secretion of NGF.
The experiment was performed according to the procedures of Y. Furukawa et al. which is described in J. Bis Chem., 261, 6039-6047 (1986).
The medium was cultured for 3 days at a temperature of 37° C. After completing the confluency (about 10^6 cells/well), the medium was changed to Medium 199 (0.5 ml/well) containing 0.5% bovine serum albumin (Fraction V, a product of Armour Co.). The sample of the derivative is contained in the medium at a prescribed concentration as illustrated in the Tables.

[2] = system: production and secretion of NGF in brain astroglial cells; assay: Promoting activity for the production and secretion of NGF in brain astroglial cells of mouse (ELISA); conditions: 24 h
Experimental: The experiment was performed by inducing the astroglial cells from mouse forebrain to culture system according to the procedures of S. Furukawa et al. which is described in Biochem. Biophys. Res. Commun., 136, 57-63 (1986).
That is, forebrains of 8-day old mice were dissected out and cut into small pieces. […] Cells and cell clamps were recovered by centrifugation at 200 xg for 5 minutes. They were cultured in Dulbecco modified Eagle's medium (a product of Gibco Co. hereinafter abbreviated as DMEM) containing 10% of fetal calf serum, […] of penicillin, and 50 μg/ml of streptomycin, for 10 to 14 days with medium changes every 3 days. After completing confluency, the cells were dissociated by trypsin treatment and recultured in new culture flasks. This procedure was repeated further twice and more. […] The cells will hereinafter be referred to as astroglial cells.
Astroglial cells were innoculated in 24-well plates having a well surface area of 2.1 cm^2 (a product of Falcon Co.) at a cell density of about 3×10^4 cells/well and cultured for 3 days in DMEM . medium supplemented with 10% of fetal calf serum. After completing confluency about 10^7 cells/well), the medium was changed to DMEM medium (0.5 ml/well) supplemented with 0.5% of bovine serum albumin ((fraction V) and cultured for 3 days. The culture was further continued with medium changes every 3 days. After cells were practically synchronized in the quiscent stage, the medium was changed to 0.5 ml of the medium supplemented with 0.5% of bovine serum albumin and containing a prescribed concentration of test sample as illustrated in Tables. […] Data are expressed as fold increase in NGF content over that in the absence of the test sample. […] Data are presented as means ±SE of four determinations.

[3] = 24 h, Table 1, 0.03 mM, 24 hours, mean ± SE of four determinations, read-out: Ratio of NGF increase
[4] = 24 h, Table 1, 0.10 mM, 24 hours, mean ± SE of four determinations, read-out: Ratio of NGF increase
[5] = read-out: Ratio of NGF increase, Table 3, 0.10 mM, 24 hours, mean ± SE of four determinations
[6] = read-out: Ratio of NGF increase, Table 3, 0.25 mM, 24 hours, mean ± SE of four determinations
[7] = 24 h, read-out: Ratio of NGF increase
[8] = read-out: Ratio of NGF increase

CCC(C)c1ccc(O)c(O)c1 (stereo not shown) [R = Two H, R1 = H, R2 = sec-Butyl]
fold induction at 30 µM [1, 3]: 9.23 ± 1.41
fold induction at 100 µM [1, 4]: 14.7 ± 1.87
fold induction at 100 µM [2, 5]: 36.3 ± 3.49
fold induction at 250 µM [2, 6]: 70.1 ± 5.75

CCc1ccc(O)c(O)c1CC [R = Two H, R1 = Ethyl, R2 = Ethyl]
fold induction at 30 µM [1, 3]: 3.01 ± 0.2
fold induction at 100 µM [1, 4]: 3.24 ± 0.19
fold induction at 100 µM [2, 5]: 16.7 ± 1.84
fold induction at 250 µM [2, 6]: 23.6 ± 1.9

CCC(C)c1ccc(O)c(O)c1C (stereo not shown) [R = Two H, R1 = Methyl, R2 = sec-Butyl]
fold induction at 30 µM [1, 3]: 6.74 ± 0.25
fold induction at 100 µM [1, 4]: 7 ± 0.76

Cc1ccc(O)c(O)c1C [R = Two H, R1 = Methyl, R2 = Methyl]
fold induction at 30 µM [1, 3]: 2.86 ± 0.12
fold induction at 100 µM [1, 4]: 3.11 ± 0.22

CCCCc1cccc(O)c1O [R = Two H, R1 = n-Butyl, R2 = H]
fold induction at 30 µM [1, 3]: 8.33 ± 0.52
fold induction at 100 µM [2, 5]: 56.2 ± 1.87
fold induction at 250 µM [2, 6]: 93.3 ± 1.65

COc1ccc(C)cc1O [4-Methylguaiacol, reference compound]
fold induction at 30 µM ([1]; 24 h, Table 2, 0.03 mM, 24-hr culture, read-out: Ratio of NGF increase, 24-hr culture): 1.09 ± 0.06
fold induction at 150 µM ([1]; 24 h, Table 2, 24-hr culture, read-out: Ratio of NGF increase, 24-hr culture): 1.03 ± 0.05
fold induction at 30 µM ([1]; 48 h, Table 2, 0.03 mM, 48-hr culture, read-out: Ratio of NGF increase, 48-hr culture): 1.1 ± 0.07
fold induction at 150 µM ([1]; 48 h, Table 2, 48-hr culture, read-out: Ratio of NGF increase, 48-hr culture): 1 ± 0.09

CCc1cccc(O)c1O [R = Two H, R1 = Ethyl, R2 = H]
fold induction at 30 µM [1, 7]: 9.76 ± 1.4
fold induction at 100 µM [1, 7]: 11.7 ± 2.13
fold induction at 100 µM [2, 8]: 46.2 ± 3.97
fold induction at 250 µM [2, 8]: 62.8 ± 4.42

CC(C)(C)c1ccc(O)c(O)c1 [R = Two H, R1 = H, R2 = tert-Butyl]
fold induction at 30 µM [1, 3]: 3.45 ± 0.35
fold induction at 100 µM [2, 5]: 18.5 ± 1.5
fold induction at 250 µM [2, 6]: 18.8 ± 2.92

CCCCCc1cccc(O)c1O [R = Two H, R1 = n-Pentyl, R2 = H]
fold induction at 30 µM [1, 3]: 5.26 ± 0.43
fold induction at 100 µM [1, 4]: 9.95 ± 0.98
fold induction at 100 µM [2, 5]: 37.2 ± 1.28
fold induction at 250 µM [2, 6]: 51.5 ± 1.4

CCCCCc1ccc(O)c(O)c1 [R = Two H, R1 = H, R2 = n-Pentyl]
fold induction at 30 µM [1, 3]: 6.37 ± 0.25
fold induction at 100 µM [1, 4]: 10.2 ± 0.71
fold induction at 100 µM [2, 5]: 43.8 ± 4.71
fold induction at 250 µM [2, 6]: 61 ± 5.82

CCCCc1c(C)ccc(O)c1O [R = Two H, R1 = n-Butyl, R2 = Methyl]
fold induction at 30 µM [1, 3]: 6.33 ± 0.75
fold induction at 100 µM [1, 4]: 6.9 ± 0.62

CC(C)c1ccc(O)c(O)c1 [R = Two H, R1 = H, R2 = Isopropyl]
fold induction at 30 µM [1, 3]: 6.17 ± 0.44
fold induction at 100 µM [1, 4]: 5.9 ± 0.41
fold induction at 100 µM [2, 5]: 34.6 ± 1.62
fold induction at 250 µM [2, 6]: 42.9 ± 2.93
